Measured values reported in the OligoGym collection.
Several values for one entry are separate records, joined by “and”; a condition that tells them apart may be missing. Identical values can stand only once. After the bases stand the sugars from the 5' end (letter, count) and the backbone: PS all phosphorothioate, else s phosphorothioate and o phosphodiester by linkage. Methylation of C is not given here. e = 2'-O-(2-methoxyethyl) (MOE); k = constrained ethyl (cEt); d = 2'-deoxy (DNA)

Molecular target: SOD1
Conditions: ASO

CAGGATACATTTCTACAGCT (sugars e5 d10 e5, linkages s1 o3 s11 o2 s2)
target mRNA inhibition (A431, 0.062 µM): 33% | target mRNA inhibition (A431, 0.185 µM): 29% | target mRNA inhibition (A431, 0.556 µM): 52% | target mRNA inhibition (A431, 0.6 µM): 50% | target mRNA inhibition (A431, 1.667 µM): 62% | target mRNA inhibition (A431, 5 µM): 74% | target mRNA inhibition (A431, 15 µM): 82% | target mRNA inhibition (SH-SY5Y, 0.062 µM): 10% | target mRNA inhibition (SH-SY5Y, 0.185 µM): 10% | target mRNA inhibition (SH-SY5Y, 0.556 µM): 33% | target mRNA inhibition (SH-SY5Y, 1.667 µM): 61% | target mRNA inhibition (SH-SY5Y, 5 µM): 81% | target mRNA inhibition (SH-SY5Y, 15 µM): 92%

TGTTTATCAGGATACAT (sugars e2 k2 d9 k2 e2, PS)
target mRNA inhibition (HepG2, 0.1875 µM): 37% | target mRNA inhibition (HepG2, 0.75 µM): 63% | target mRNA inhibition (HepG2, 3 µM): 83% | target mRNA inhibition (HepG2, 4 µM): 83% | target mRNA inhibition (HepG2, 12 µM): 95%

TAAAGTGAGGACCTGCA (sugars e3 k2 d7 k2 e3, PS)
target mRNA inhibition (HepG2, 3 µM): 19%

TGTCAGCAGTCACATTGCCC (sugars e5 d10 e5, PS)
target mRNA inhibition (HepG2, 5 µM): 55% and 49%

ATTTCTACAGCTAGCAG (sugars e3 k2 d7 k2 e3, PS)
target mRNA inhibition (HepG2, 3 µM): 45%

ATAGAGGATTAAAGTGA (sugars e3 k2 d7 k2 e3, PS)
target mRNA inhibition (HepG2, 3 µM): 9%

TTCCTTCTGCTCGAAAT (sugars e3 k2 d7 k2 e3, PS)
target mRNA inhibition (HepG2, 3 µM): 13%

ATAGCCTCATAATAAGT (sugars e2 k2 d8 k2 e3, PS)
target mRNA inhibition (HepG2, 5 µM): 20%

CTGTATTATCTCCAAACTCA (sugars e5 d10 e5, PS)
target mRNA inhibition (HepG2, 5 µM): 32% and 28%

CTCACTACAGGTACTTT (sugars e2 k2 d8 k2 e3, PS)
target mRNA inhibition (HepG2, 5 µM): 40%

TAATGCTTCCCCACACC (sugars e3 k2 d7 k2 e3, PS)
target mRNA inhibition (HepG2, 3 µM): 52%

TTATTCACAGGCTTGAA (sugars e3 k2 d7 k2 e3, PS)
target mRNA inhibition (HepG2, 3 µM): 10%

CATTTCTACAGCTAGCA (sugars e3 k2 d7 k2 e3, PS)
target mRNA inhibition (HepG2, 3 µM): 34%

TGAGAGTGAGATCACAGAAT (sugars e5 d10 e5, PS)
target mRNA inhibition (HepG2, 5 µM): 18%

ACACTTTTAAGATTACAGTG (sugars e5 d10 e5, PS)
target mRNA inhibition (HepG2, 5 µM): 15%

GGATACATTTCTACAGC (sugars e5 d8 k2 e2, linkages s1 o3 s9 o1 s2)
target mRNA inhibition (A431, 0.062 µM): 2% | target mRNA inhibition (A431, 0.185 µM): 4% | target mRNA inhibition (A431, 0.556 µM): 15% | target mRNA inhibition (A431, 1.667 µM): 19% | target mRNA inhibition (A431, 5 µM): 37% | target mRNA inhibition (A431, 15 µM): 44% | target mRNA inhibition (SH-SY5Y, 0.062 µM): 0% | target mRNA inhibition (SH-SY5Y, 0.185 µM): 0% | target mRNA inhibition (SH-SY5Y, 0.556 µM): 12% | target mRNA inhibition (SH-SY5Y, 1.667 µM): 30% | target mRNA inhibition (SH-SY5Y, 5 µM): 56% | target mRNA inhibition (SH-SY5Y, 15 µM): 68%

GTTTATTGGGCGATCCC (sugars e2 k2 d9 k2 e2, PS)
target mRNA inhibition (HepG2, 4 µM): 68%

GTCGCCCTTCAGCACGC (sugars e2 k2 d9 k2 e2, PS)
target mRNA inhibition (HepG2, 4 µM): 72%

CCGCGACTACTTTATAG (sugars e3 k2 d7 k2 e3, PS)
target mRNA inhibition (HepG2, 3 µM): 5%

CTCCGCGACTACTTTATAGG (sugars e5 d10 e5, PS)
target mRNA inhibition (HepG2, 4 µM): 27%

GTGATTTAAGTCTGGCA (sugars e2 k2 d9 k2 e2, PS)
target mRNA inhibition (HepG2, 5 µM): 69%

TTGGGCGATCCCAATTA (sugars e3 k2 d7 k2 e3, PS)
target mRNA inhibition (HepG2, 3 µM): 26%

AGCAGTCACATTGCCCA (sugars e3 k2 d7 k2 e3, PS)
target mRNA inhibition (HepG2, 3 µM): 18%

ACCACAAGCCAAACGACTTC (sugars e5 d10 e5, PS)
target mRNA inhibition (HepG2, 5 µM): 28%

AATCAGTTTCTCACTAC (sugars e2 k2 d8 k2 e3, PS)
target mRNA inhibition (HepG2, 5 µM): 34%

CGTCGCCCTTCAGCACG (sugars e2 k2 d8 k2 e3, PS)
target mRNA inhibition (HepG2, 4 µM): 52%

GGCAAAATACAGGTCAT (sugars e3 k2 d7 k2 e3, PS)
target mRNA inhibition (HepG2, 3 µM): 39%

GGATACATTTCTACAG (sugars kekeddddddddekek, linkages s1 o3 s8 o1 s2)
target mRNA inhibition (A431, 0.12 µM): 0% | target mRNA inhibition (A431, 0.6 µM): 0% | target mRNA inhibition (A431, 3 µM): 0% | target mRNA inhibition (A431, 15 µM): 14%
